Assay results published in patent US7238525B2, “Strategy for leukemia therapy” (The Regents of the University of California, priority 2000, dated 2007).

How the values were obtained:
Bcr-Abl-KD = assay: Nuclear localization by immunofluorescence in transfected Abl−/− fibroblasts (Bcr-Abl-KD); type: cell-based; settings: LMB alone
K562 cells [1] = assay: Cell survival assay, K562 cells; type: cell-based; settings: 72 hours treatment, then drug removal
Experimental: […]. […] […].
After 48 h (TonB, TonB210) or 72 h (K562), live cells were counted with the Trypan blue exclusion assay. Cells were then washed extensively with PBS and placed in growth media. Trypan blue cell counts were repeated every 48 h and followed by feeding with fresh media. Cell counts were stopped when the number of viable cells was higher than the number of cells originally plated.

[2] = human, in vivo; cited from earlier work
TonB cells = settings: 48 hours treatment, with IL-3
human leukemic cells = settings: in vivo STI571 treatment; cited from earlier work
untransfected cells = assay: TUNEL assay, untransfected cells; type: cell-based; settings: STI571 alone, BCR-Abl-NES experiment
Description: It is known that activation of the nuclear Abl tyrosine kinase by DNA damage can contribute to the induction of apoptosis (Gong et al., 1999; Wang, 2000). Similarly, when translocated into the nucleus, Bcr-Abl kinase can activate apoptosis. […]. […] However, removal of the inhibitor while maintaining the Bcr-Abl in the nucleus strongly stimulated apoptosis. […]. With this protocol, between 70–80% of the Bcr-Abl expressing cells were positive for TUNEL staining, whereas the apoptosis rate remained at the 10% level with untransfected cells (Table 2). By expressing Bcr-Abl-KD and treating cells with LMB alone, it was confirmed that an active nuclear Bcr-Abl kinase was required to induce apoptosis.
Cell Death Assays. […] […].

[3] = human, in vivo; cited from earlier work; remark: listed apart in the source
K562 cells [4] = assay: Tyrosine-phosphorylated proteins in total cell lysates, K562; settings: at the end of drug treatments
Experimental: The tyrosine-phosphorylated proteins in total cell lysates were examined at the end of drug treatments and then before their precipitous death.
Transfection and Immunoblotting. […] Immunoblots were performed using 1 μg/ml 4G10 monoclonal antibody against phosphotyrosine (Upstate Biotechnology, Waltham, Mass.), or 1 μg/ml monoclonal antibody against Abl (8E9) (Pharmingen, San Diego, Calif.).

Row | SMILES | nuclear fraction of Bcr-Abl-KD (Bcr-Abl-KD) | viable cell numbers (K562 cells [1]) | toxicity observed in a phase I clinical trial [2] | viable cell numbers (TonB cells) | tumors eradicated (human leukemic cells) | TUNEL-positive untransfected cells (untransfected cells) [%] | maximum tolerated dose [3] | overall levels of tyrosine-phosphorylated proteins (K562 cells [4])
1 | CCC(=C/[C@H](C)C/C=C/C(C)=C/[C@@H](C)C(=O)[C@@H](C)[C@H](O)[C@@H](C)C/C(C)=C/C(=O)O)/C=C/[C@@H]1OC(=O)C=C[C@@H]1C [LMB, leptomycin B] | 25–35% | initial decline in cell number | neuronal toxicity | caused a reduction in cell numbers | – | – | – | –
2 | Cc1ccc(NC(=O)c2ccc(CN3CCN(C)CC3)cc2)cc1Nc1nccc(-c2cccnc2)n1 [STI571, 4-[(4-methyl-piperazinyl)methyl]-N-[4-methyl-3-[[4-(3-pyrodnyl)-2-pyrimidinyl]amin]phenyl]benzamide methanesul-fonate] | – | initial death | – | – | 70–100% | 3 | No maximum tolerated dose has been identified | decreased
